Like-named read-outs stand apart in the source and are kept apart here.
Tests used:
[1] = tested on: rat osteosarcoma (17/2.8) cells; assay: Rat osteosarcoma (ROS) cell-based alkaline phosphatase assay; conditions: 0.02-200 uM, 2 days; relative to BMP-7 standard
Method: BMP interactions with Type I and Type II receptors can induce alkaline phosphatase activity, a marker for osteoblast activity, in ROS cells. An assay procedure as described earlier (Maliakal, J.C., Asahina, I., Hauschka, P. V., and Sampath, T. K. (1994) Growth factors 11, 227-234) was used to determine the biological activities of TDFRP compounds. In a typical experiment, rat osteosarcoma (17/2.8) cells are plated in 96 well plates (3.0×10^4 cells/well) and incubated overnight at 37 C in 5-6% CO2 incubator. The next day, healthy and confluent cells are treated with increasing concentrations of BMP-7 standard (1-10,000 ng/ml) served as positive control or TDFRP compounds (0.02-200 uM) prepared in medium containing 1% FBS and incubated for 2 days at 37 C in 5-6% CO2 incubator. The cellular content of alkaline phosphatase activity is determined by the method of Reddi and Huggins (Reddi, A. H., and Huggins, C. B (1972) Proc. Natl. Acad. Sci. USA 69, 1601-1605). Enzyme estimations are performed in 96 well plates. Following removal of culture medium, cells are washed with pre-warmed PBS (150 ul) and incubated in 100 ul of pre-warmed 1% Triton X-100 for 30 minutes at 37 C. Plates are centrifuged for 10 minutes at full speed, and recovered samples (15 ul) are assayed for enzyme activity by adding 90 ul p-nitrophenyl phosphate (Sigma) as a substrate in 0.05 M glycine-NaOH buffer, pH 9.3 and incubating for 20 minutes at 37 C. The reaction is stopped by adding 75 ul of 0.2 N NaOH/well and absorbance at 405/490 nm is measured on a Dynatech MR 700 plate reader. Results are expressed as relative activities compared to a BMP-7 standard.

ALK-3 = ALK-3 (Homo sapiens, UniProt P36894); assay: Radioligand receptor binding assay (competition with 125I-labeled TDF-1)
Sequence of ALK-3 (P36894 24-532, species assumed): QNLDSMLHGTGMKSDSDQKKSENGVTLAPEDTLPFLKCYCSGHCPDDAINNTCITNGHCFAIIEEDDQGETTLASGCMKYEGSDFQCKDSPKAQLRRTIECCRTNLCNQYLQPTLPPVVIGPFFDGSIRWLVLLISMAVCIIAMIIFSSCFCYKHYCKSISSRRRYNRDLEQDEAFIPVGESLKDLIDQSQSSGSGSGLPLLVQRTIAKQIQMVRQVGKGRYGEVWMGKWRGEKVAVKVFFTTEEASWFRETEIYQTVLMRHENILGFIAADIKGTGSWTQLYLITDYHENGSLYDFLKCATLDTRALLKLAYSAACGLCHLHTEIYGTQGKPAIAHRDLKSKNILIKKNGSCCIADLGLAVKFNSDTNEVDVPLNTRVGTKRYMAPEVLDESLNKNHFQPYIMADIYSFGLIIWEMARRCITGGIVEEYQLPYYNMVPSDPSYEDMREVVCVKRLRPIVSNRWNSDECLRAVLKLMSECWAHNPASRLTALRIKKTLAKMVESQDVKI
Source text: General protocol: These assays are based on competition between ^125I-labeled TDF-1 (BMP-7 or OP-1) and candidate TDFRP compounds or unlabeled TDF-1 for binding to respective receptors (ALK-3, ALK-6 or BMPR-2). In brief, the procedure involves immobilization of receptor on 96 well Removawell plates, blocking the wells with 3% BSA in PBS and subsequently washing the wells. Increasing concentrations of unlabeled TDF-1 or TDFRP compounds or control (unlabeled TDF-1) prepared in binding buffer are then added. Incubate plate for 1 hour at room temperature, and then add a fixed amount of ^125I-labeled TDF-1 (250,000 to 350,000 cpm) to the wells and further incubate in cold (4° C.) for 20 hours. Aspirate the contents of the wells and wash the wells four times with a wash buffer, and count the receptor bound ^125I-labeled TDF-1 in an auto gamma counter.
Using this procedure, TDFRP compound binding to select ALK receptors are assessed. Accordingly, TDFRP compounds that preferentially bind select ALK receptors can be identified. For example, TDFRP compounds that preferentially bind to ALK-3 receptor compared with binding to other ALK receptors, e.g., ALK-6 (FIG. 1 and FIG. 11).

HK-2 cells = assay: Apoptosis detection using Annexin V immunostaining after cisplatin; type: cell-based, human; conditions: 10 uM cisplatin; 500 uM compound prophylactically or therapeutically
Method: Apoptosis and cell viability are quantified using AnnexinV-FITC and propidium iodide staining of HK-2 cells following cisplatin treatment Immortalized PTEC-derived HK-2 cells (ATCC number CRL-2190) are cultured in serum-free keratinocyte medium (GIBCO number 17005-042) supplemented with EGF and BPE for 48 hours (Ryan et al. 1994 Kidney Int 45:48-57). Medium is aspirated and cells are washed with PBS and incubated in the dark for 15 min at room temperature with 10 μl of media binding agent and 1.25 μl of FITC conjugated AnnexinV. Propidium iodide (10 μl) is added, and samples are analyzed immediately. Quantification of Annexin V-FITC and propidium iodide signals is performed by fluorescence microscopy (Axiovert 135; Carl Zeiss). Phase contrast images are observed using transmitted light. Apoptotic cells show cytoplasmic staining and viable cells remain unstained (FIG. 14A-FIG. 14D).

[2] = tested on: CD1 mouse model of streptozotocin (STZ)-induced diabetic nephropathy; assay: Streptozotocin (STZ)-induced diabetic nephropathy; type: in vivo; conditions: ip 5 mg/kg/24 hr; after one month treatment
Method: Reversal of interstitial fibrosis by Thrasos compound SEQ ID NO 45 in a CD1 mouse model of streptozotocin (STZ)-induced diabetic nephropathy. FIG. 7A. schematic of the experimental protocol, FIG. 7B: Kidney section of vehicle-treated animal, FIG. 7C: Kidney section of animal received ip administration of Thrasos compound (5 mg/kg/24 hr). Sac: After one month treatment.

differential binding to Type I receptors (ALK-3 compared to ALK-6) (ALK-3): selectively binds to ALK-3
Sequence: CYFDDSSNVLCKKYRS [SEQ ID NO 45]
induction of alkaline phosphatase activity [1]: did not induce alkaline phosphatase activity | differential binding to Type I receptors (ALK-3 compared to ALK-6) (ALK-3; listed as SEQ ID NO:45): binds preferentially to BMP type I receptors (ALK3) | cisplatin-induced apoptosis (HK-2 cells): inhibits cisplatin-induced apoptosis | renal interstitial fibrosis [2]: effectively reversed renal interstitial fibrosis
